Measurements taken from patent US11931569B2, “Method for changing blood brain barrier permeability” (TEL HASHOMER MEDICAL RESEARCH, INFRASTRUCTURE AND SERVICES …, priority 2018, dated 2024).

Legend:
[1] = test system: in vitro BBB model (CD34+-derived ECs co-cultured with bovine brain pericytes on Transwell inserts); assay type: in vitro ADME, human
Description: Reference is made to FIG. 2A that schematically illustrates an in vitro BBB model 100 grown in Transwell inserts 200 (3401-Costar, Corning, USA). The in vitro human BBB model was generated as follows: CD34^+-derived ECs 250 were seeded onto matrigel-coated (BD Biosciences, USA) apical side 206 of a Transwell insert membrane 204. Primary bovine brain pericytes 252 were seeded on the gelatin-coated basolateral side 208 of the same Transwell inserts 2-24 h before the seeding of the ECs. […]
PEFs were applied to Transwell inserts 200 using an electroporator power supply (BTX 830; Harvard Apparatus, Holliston, MA). […] Given the parameters of the electrode and based on a finite elements model of the described system, the EF generated between the electrodes by the applied voltage can be approximated as uniform across the ECs monolayer and can be calculated by dividing the Voltage by the electrodes distance. […]
50 μl of a solution containing 0.5 mg/ml NaF in PBS was added to the luminal (apical) side of each Transwell insert 200 one minute prior to PEFs application. […] A sample of medium 102 collected from under basolateral side 208 was collected and the samples' fluorescence was measured using TECAN pro200 plate reader (485/538 nm excitation/emission). […]

CNS-1 glioma cell line = assay: efficacy of Paclitaxel across the in vitro BBB model after PEF application (glioma confluency); assay type: cell-based; conditions: 200 nM Paclitaxel on apical side, 2 h with insert, followed 3 days
Description: Reference is made to FIG. 5A. To study the effect of PEFs application on BBB permeability for Paclitaxel (Taxol®), the in vitro BBB model 100 as shown FIG. 2A was modified by seeding a CNS-1 glioma cell line 254 on a bottom surface 103 of cell culture well 101 (40,000 cells per well), into which the BLEC co-culture system grown on membrane 204 of Transwell insert 200 was also grown. When the glioma cell line was at about 16±0.5% confluency, 200 nM Paclitaxel was added into ECM media 102 in the apical side of Transwell insert 200 and PEFs were applied at one of various settings, then incubated for 2 hours after which time the Transwell insert was removed. […] Glioma cell line 254 was then further incubated for three days and the level of confluency was measured at 2 hours, 1 day, 2 days, and 3 days following Paclitaxel administration.
The results as shown by way of example in FIG. 5B indicate that low pulse-count, low frequency, low EF strength PEFs induce sufficient BBB disruption to allow a therapeutic dose of Paclitaxel to traverse the in vitro BBB model and reach the glioma cell line.

Row | SMILES | increase in permeability [1] | glioma cell growth / confluency (CNS-1 glioma cell line; 10 pulses, 74 V/cm, 1 Hz) | glioma cell growth / confluency (CNS-1 glioma cell line; 20 pulses, 30 V/cm, 1 Hz) | glioma cell growth / confluency (CNS-1 glioma cell line; 99 pulses, 30 V/cm, 1 Hz) | glioma cell growth / confluency (CNS-1 glioma cell line; control, no PEF application)
1 | O=C([O-])c1ccccc1-c1c2ccc(=O)cc-2oc2cc([O-])ccc12.[Na+].[Na+] [NaF, sodium fluorescein] | 40±9% |  |  |  | 
2 | CC(=O)O[C@H]1C(=O)[C@@]2(C)[C@H]([C@H](OC(=O)c3ccccc3)[C@]3(O)C[C@H](OC(=O)[C@H](O)[C@@H](NC(=O)c4ccccc4)c4ccccc4)C(C)=C1C3(C)C)[C@]1(OC(C)=O)CO[C@@H]1C[C@@H]2O [Paclitaxel] |  | substantially disrupt its growth | glioma growth was not significantly retarded | level of retardation of glioma growth was equivalent to application of 10 pulses of PEFs at a field strength of 74 V/cm | reach full confluency after 3 days
